We go through 29 molecules from patent US12655120B2, “GPR52 modulator compounds” (NXERA PHARMA UK LIMITED, priority 2020, dated 2026).

The target of this assay is T1, human GPR52 (Homo sapiens, UniProt Q9Y2T5).
T1 construct: expressed in transfected cells; host or cells: HEKf suspension cells infected with BacMam virus
Briefly: GPR52 Agonist Functional cAMP Assay. The class given is cell-based. The note with it: for EC50: HEKf cells infected with human GPR52 BacMam, HTRF cAMP, 30 min at 37° C., read-out: pEC50 average (converted); for Emax: normalised to DMSO (0%) and maximal compound 7m (J. Med. Chem., 2014, 57, 5226) response (100%). Here is the method:
HEKf suspension cells were infected for 24 h with 0.1% v/v human GPR52 expressing BacMam virus, a modified baculovirus designed for mammalian gene expression. Following BacMam infection, cells were pelleted by centrifugation (335 g, 5 min), resuspended in cell freezing medium (Sigma) and frozen at −150° C. until required. On experiment day, 25 nL GPR52 compound dilutions, prepared in DMSO, were stamped onto proxiplates (PerkinElmer) by a LabCyte ECHO acoustic dispenser. Frozen cells were thawed and resuspended in assay stimulation buffer (Cisbio) containing 0.5 mM 3-iso-butyl-1-methylxanthine (IBMX, Sigma) to achieve a density of 2000 cells per well. 10 μl cells were added to assay plates using a Multidrop Combi Reagent Dispenser (ThermoFisher) before centrifugation (335 g, 1 min). Cells were incubated with compounds at 37° C. for 30 min prior to addition of cAMP detection reagents (HiRange cAMP kit, Cisbio) which were prepared according to the manufacturer's instructions. Plates were shaken for 1 h at room temperature before reading on a PHERAstar FS plate reader (BMG Labtech) using standard HTRF settings. HTRF ratios were obtained by dividing the acceptor emissions (665 nm) by the donor emissions (620 nm) and multiplying by 10,000.

T1 sequence (Q9Y2T5 whole entry): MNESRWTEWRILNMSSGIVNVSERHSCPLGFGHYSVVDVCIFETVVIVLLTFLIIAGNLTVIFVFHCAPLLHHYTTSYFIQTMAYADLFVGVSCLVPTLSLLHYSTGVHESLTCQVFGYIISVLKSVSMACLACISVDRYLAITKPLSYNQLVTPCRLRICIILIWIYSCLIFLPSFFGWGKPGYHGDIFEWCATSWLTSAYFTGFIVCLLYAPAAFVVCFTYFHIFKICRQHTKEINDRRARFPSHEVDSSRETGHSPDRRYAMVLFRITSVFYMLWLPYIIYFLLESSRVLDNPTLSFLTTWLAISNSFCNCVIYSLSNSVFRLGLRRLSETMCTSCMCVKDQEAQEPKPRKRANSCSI

As to `NC(=O)c1nn(-c2cc(Cc3cc(F)cc(C(F)(F)F)c3)ccn2)cc1CO` [Example 49, 1-(4-(3-fluoro-5-(trifluoromethyl)benzyl)pyridin-2-yl)-4-(hydroxymethyl)-1H-pyrazole-3-carboxamide], the EC50 is 63.1 nM and the Emax turned out to be 93%.

On to `CNC(=O)c1cn(-c2ccnc(Cc3cc(F)cc(C(F)(F)F)c3)c2)nc1C` [Example 17, 1-(2-(3-fluoro-5-(trifluoromethyl)benzyl)pyridin-4-yl)-N,3-dimethyl-1H-pyrazole-4-carboxamide], for which the EC50 is 10 nM and the Emax is 93%.

In the case of `Cc1nn(-c2ccnc(C(O)c3cc(F)cc(C(F)(F)F)c3)c2)cc1C(N)=O` (stereo not drawn) [Example 59, 1-(2-((3-fluoro-5-(trifluoromethyl)phenyl)(hydroxy)methyl)pyridin-4-yl)-3-methyl-1H-pyrazole-4-carboxamide], the EC50 is 200 nM and the Emax is 79%.

Take `NC(=O)c1ccn(-c2cc(Cc3cc(F)cc(C(F)F)c3)ccn2)n1` [Example 38, 1-(4-(3-(difluoromethyl)-5-fluorobenzyl)pyridin-2-yl)-1H-pyrazole-3-carboxamide]: the EC50 was 20 nM and the Emax was found to be 93%.

As for `Cc1nn(-c2ccnc(Cc3cc(F)cc(C(F)(F)F)c3)c2)cc1C(N)=O` [Example 8, 1-(2-(3-fluoro-5-(trifluoromethyl)benzyl)pyridin-4-yl)-3-methyl-1H-pyrazole-4-carboxamide], the EC50 was 20 nM and the Emax came to 96%.

With `CNC(=O)c1nn(-c2cc(Cc3cc(F)cc(C(F)(F)F)c3)ccn2)cc1CO` [Example 50, 1-(4-(3-fluoro-5-(trifluoromethyl)benzyl)pyridin-2-yl)-4-(hydroxymethyl)-N-methyl-1H-pyrazole-3-carboxamide], the EC50 was 10 nM and the Emax turned out to be 82%.

As for `CCc1nn(-c2ccnc(Cc3cc(F)cc(C(F)(F)F)c3)c2)cc1C(N)=O` [Example 25, 3-ethyl-1-(2-(3-fluoro-5-(trifluoromethyl)benzyl)pyridin-4-yl)-1H-pyrazole-4-carboxamide], the EC50 was 10 nM and the Emax came out at 99%.

`CNC(=O)c1ccn(-c2ccnc(Cc3cc(F)cc(C(F)(F)F)c3)c2)n1` [Example 55, 1-(2-(3-fluoro-5-(trifluoromethyl)benzyl)pyridin-4-yl)-N-methyl-1H-pyrazole-3-carboxamide]: the EC50 is 126 nM and the Emax turned out to be 83%.

On to `Cc1nn(-c2cc(Cc3cc(F)cc(C(F)(F)F)c3)ccn2)nc1C(N)=O` [Example 13, 2-(4-(3-fluoro-5-(trifluoromethyl)benzyl)pyridin-2-yl)-5-methyl-2H-1,2,3-triazole-4-carboxamide], for which the EC50 was 39.8 nM and the Emax turned out to be 93%.

On to `Cc1nn(-c2ccnc(Cc3cc(F)cc(C(F)(F)F)c3)c2)cc1C(=O)NCCO` [Example 20, 1-(2-(3-fluoro-5-(trifluoromethyl)benzyl)pyridin-4-yl)-N-(2-hydroxyethyl)-3-methyl-1H-pyrazole-4-carboxamide], for which the EC50 was 15.8 nM and the Emax was 96%.

For `N#Cc1nn(-c2ccnc(Cc3cc(F)cc(C(F)(F)F)c3)c2)cc1C(N)=O` [Example 26, 3-cyano-1-(2-(3-fluoro-5-(trifluoromethyl)benzyl)pyridin-4-yl)-1H-pyrazole-4-carboxamide], the EC50 was 100 nM and the Emax is 87%.

With `CNC(=O)c1cnn(-c2cc(Cc3cc(F)cc(C(F)(F)F)c3)ccn2)c1` [Example 3, 1-(4-(3-fluoro-5-(trifluoromethyl)benzyl)pyridin-2-yl)-N-methyl-1H-pyrazole-4-carboxamide], the EC50 was 316 nM and the Emax came out at 86%.

For the molecule `Cc1c(C(N)=O)cnn1-c1cc(Cc2cc(F)cc(C(F)(F)F)c2)ccn1` [Example 7, 1-(4-(3-fluoro-5-(trifluoromethyl)benzyl)pyridin-2-yl)-5-methyl-1H-pyrazole-4-carboxamide], the EC50 is 126 nM and the Emax amounted to 93%.

For the molecule `O=C(NCCO)c1ccn(-c2cc(Cc3cc(F)cc(C(F)(F)F)c3)ccn2)n1` [Example 35, 1-(4-(3-fluoro-5-(trifluoromethyl)benzyl)pyridin-2-yl)-N-(2-hydroxyethyl)-1H-pyrazole-3-carboxamide], the EC50 was 398 nM and the Emax was found to be 83%.

Consider `NC(=O)c1cnn(-c2cc(Cc3cc(F)cc(C(F)(F)F)c3)ccn2)n1` [Example 4, 2-(4-(3-fluoro-5-(trifluoromethyl)benzyl)pyridin-2-yl)-2H-1,2,3-triazole-4-carboxamide], for which the EC50 is 316 nM and the Emax is 84%.

For `NC(=O)c1cc(CO)n(-c2cc(Cc3cc(F)cc(C(F)(F)F)c3)ccn2)n1` [Example 54, 1-(4-(3-fluoro-5-(trifluoromethyl)benzyl)pyridin-2-yl)-5-(hydroxymethyl)-1H-pyrazole-3-carboxamide], the EC50 was 79.4 nM and the Emax worked out at 92%.

In the case of `CNC(=O)c1ccn(-c2cc(Cc3cc(F)cc(C(F)F)c3)ccn2)n1` [Example 46, 1-(4-(3-(difluoromethyl)-5-fluorobenzyl)pyridin-2-yl)-N-methyl-1H-pyrazole-3-carboxamide], the EC50 was 50.1 nM and the Emax came to 88%.

Take `Cc1nn(-c2cc(Cc3cc(F)cc(C(F)(F)F)c3)ccn2)c(C)c1C(N)=O` [Example 6, 1-(4-(3-fluoro-5-(trifluoromethyl)benzyl)pyridin-2-yl)-3,5-dimethyl-1H-pyrazole-4-carboxamide]: the EC50 was 12.6 nM and the Emax stood at 97%.

With `NC(=O)c1cn(-c2ccnc(Cc3cc(F)cc(C(F)(F)F)c3)c2)nc1C(F)F` [Example 23, 3-(difluoromethyl)-1-(2-(3-fluoro-5-(trifluoromethyl)benzyl)pyridin-4-yl)-1H-pyrazole-4-carboxamide], the EC50 is 25.1 nM and the Emax was 87%.

Regarding `Cc1cc(C(N)=O)nn1-c1cc(Cc2cc(F)cc(C(F)(F)F)c2)ccn1` [Example 30, 1-(4-(3-fluoro-5-(trifluoromethyl)benzyl)pyridin-2-yl)-5-methyl-1H-pyrazole-3-carboxamide], the EC50 was 158 nM and the Emax stood at 93%.

Take `NC(=O)c1cnn(-c2cc(Cc3cc(F)cc(C(F)(F)F)c3)ccn2)c1` [Example 1, 1-(4-(3-fluoro-5-(trifluoromethyl)benzyl)pyridin-2-yl)-1H-pyrazole-4-carboxamide]: the EC50 is 126 nM and the Emax is 90%.

`Cc1nn(-c2ccnc(Cc3cc(F)cc(C(F)(F)F)c3)c2)c(CO)c1C(=O)NCCO` [Example 42, 1-(2-(3-fluoro-5-(trifluoromethyl)benzyl)pyridin-4-yl)-N-(2-hydroxyethyl)-5-(hydroxymethyl)-3-methyl-1H-pyrazole-4-carboxamide] yielded an Emax of 100%.

For `Cc1cn(-c2cccc(Cc3cc(F)cc(C(F)(F)F)c3)n2)nc1C(N)=O` [Example 15, 1-(6-(3-fluoro-5-(trifluoromethyl)benzyl)pyridin-2-yl)-4-methyl-1H-pyrazole-3-carboxamide], the EC50 was 79.4 nM and the Emax was 92%.

As for `COCCNC(=O)c1ccn(-c2cc(Cc3cc(F)cc(C(F)(F)F)c3)ccn2)n1` [Example 36, 1-(4-(3-fluoro-5-(trifluoromethyl)benzyl)pyridin-2-yl)-N-(2-methoxyethyl)-1H-pyrazole-3-carboxamide], the EC50 is 126 nM and the Emax turned out to be 87%.

For the molecule `Cc1nn(-c2ccnc(Cc3cc(F)cc(C(F)(F)F)c3)c2)cc1C(=O)N(C)C` [Example 18, 1-(2-(3-fluoro-5-(trifluoromethyl)benzyl)pyridin-4-yl)-N,N,3-trimethyl-1H-pyrazole-4-carboxamide], the EC50 is 79.4 nM and the Emax was found to be 92%.

For the molecule `O=C(c1ccn(-c2cc(Cc3cc(F)cc(C(F)(F)F)c3)ccn2)n1)N1CCCC1` [Example 33, (1-(4-(3-fluoro-5-(trifluoromethyl)benzyl)pyridin-2-yl)-1H-pyrazol-3-yl)(pyrrolidin-1-yl)methanone], the EC50 is 126 nM and the Emax was determined as 87%.

Take `Cc1nn(-c2ccnc(Cc3cc(F)cc(C(F)(F)F)c3)c2)nc1C(N)=O` [Example 12, 2-(2-(3-fluoro-5-(trifluoromethyl)benzyl)pyridin-4-yl)-5-methyl-2H-1,2,3-triazole-4-carboxamide]: the EC50 was 50.1 nM and the Emax was 95%.

As for `O=C(NC1COC1)c1ccn(-c2cc(Cc3cc(F)cc(C(F)(F)F)c3)ccn2)n1` [Example 34, 1-(4-(3-fluoro-5-(trifluoromethyl)benzyl)pyridin-2-yl)-N-(oxetan-3-yl)-1H-pyrazole-3-carboxamide], the EC50 is 631 nM and the Emax was determined as 77%.

On to `CNC(=O)c1cn(-c2cccc(Cc3cc(F)cc(C(F)(F)F)c3)n2)nc1CO` [Example 48, 1-(6-(3-fluoro-5-(trifluoromethyl)benzyl)pyridin-2-yl)-3-(hydroxymethyl)-N-methyl-1H-pyrazole-4-carboxamide], for which the EC50 was 1580 nM and the Emax was determined as 36%.
